What is called IC50 is the concentration that inhibits the measured activity by half. Low values mean greater potency in that assay, high ones weaker potency in that assay.

The nature of the test: Inhibition of phorbol ester-induced ornithine decarboxylase in human MCF7 cells after 6 hrs.
With `COc1cc(/C=C/c2ccc3c(c2)OC(C)(C)C=C3)cc(OC)c1OC` [3,4,5-trimethoxy-6'',6''-dimethylpyran[2'',3'':3',4']stilbene], the half-inhibitory concentration (IC50) came out at 3.9 µM.

With `COc1cc(/C=C/c2cc(OC)c3c(c2)OC(C)(C)C=C3)ccc1O` [3,5'-dimethoxy-4-hydroxy-6'',6''-dimethylpyran[2'',3'':3',4']stilbene], half-maximal inhibition (IC50) required 7.4 µM. `COc1cc(/C=C/C(=O)c2ccc3c(c2O)C=CC(C)(C)O3)ccc1O` [3-methoxy-4-hydroxylonchocarpin] came in with an IC50 of 3.6 µM. The same measure for `Oc1ccc(/C=C/c2cc(O)cc(O)c2)cc1` [5-[(E)-2-(4-hydroxyphenyl)ethenyl]benzene-1,3-diol]: 19 µM; for `COc1ccc([C@@H]2CC(=O)c3cc(CC=C(C)C)c4c(c3O2)C=CC(C)(C)O4)cc1OC` [(2S)-6-(gamma,gamma-dimethylallyl)-3',4'-dimethoxy-6'',6''-dimethylpyran[2'',3'':7,8]flavanone]: 2.3 µM; for `COc1cc([C@@H]2CC(=O)c3c(O)c(CC=C(C)C)c4c(c3O2)C=CC(C)(C)O4)ccc1O` [(2S)-6-(gamma,gamma-dimethylallyl)-5,4'-dihydroxy-3'-methoxy-6'',6''-dimethylpyran[2'',3'':7,8]flavanone]: 1.1 µM. The same measure for `O=c1c(-c2ccc(O)cc2)coc2cc(O)cc(O)c12` [Prunetol]: 26 µM.

The values above are taken from BindingDB's records for doi:10.1021/np980119+ (University of California, 1999).
